Entries after “also recorded” stand apart in the source; their conditions may differ.
What was measured:
[1] = molecular target: human S1P3 receptor (Homo sapiens, UniProt Q99500); experiment: Intracellular calcium mobilization, T24 cells transfected stably with human S1P3 receptor; format: cell-based; set-up: expressed in transfected cells
Procedure: (§1) […] monolayers are co-transfected with the human S1P1, S1P2, S1P3 receptor encoding DNAs and the pIRESpuro2 plasmid DNA (Clontech, San Jose, Calif.,) using either Lipofectamine 2000 (Invitrogen, Carlsbad, Calif.) or FuGENE 6 (Roche Applied Science, Indianapolis, Ind.). Clonal populations expressing the puromycin acetyltransferase gene are selected by addition of puromycin (Sigma-Aldrich, St. Louis, Mo.) to the culture media. T24 cells are grown in monolayers at 37° C. in a 5% CO2/95% air atmosphere in growth media consisting of: 95% DMEM/F-12 medium and 10% charcoal/dextran stripped FBS.
A FlexStation™ fluorimeter (Molecular Devices, Menlo Park, Calif.) was used to measure intracellular calcium in native T24 cells and T24 cells transfected stably with either human S1P2 or human S1P3 receptor DNA. Cells were seeded (˜50,000 cells/well) in 96-well, clear bottom black microplates (Corning Costar Corp.) and left overnight at 37° C. The cells were dye-loaded with 4 μM Fluo-4AM ester in a loading buffer (Hank's Balanced Salt Solution, […], containing 20 mM HEPES, 0.1% fatty acid free BSA, and 2.5 mM probenecid) for 30 minutes at 37° C. After washing cell monolayers three times with phosphate buffered saline, loading buffer was added and the cells exposed to sets of compounds for 3 minutes at 25° C. in the FlexStation™. In all cases, each concentration of every compound was tested in at least triplicate. […] The cells were washed with phosphate buffered saline and exposed to compounds immediately, as described above.
(§2) Briefly, nonlinear analysis of the best-fit line generated by plotting the negative log of the EC50 values obtained from agonist dose-response curves, in the absence and presence of varying concentrations of antagonist, was plotted against the concentration of antagonist to give the Kb value.

[2] = molecular target: T1, human S1P1 receptor (Homo sapiens, UniProt P21453); experiment: [γ-35S]GTP binding assay, HEK293T membranes (agonism and Schild antagonism); format: biochemical; set-up: expressed in transfected cells; host or cells: HEK293T, transient transfection; membranes
Source text: The appropriate receptor plasmid DNA (encoding human S1P1, human S1P2, human S1P3, human S1P4, human S1P5, human LPA1, human LPA2 or human LPA3 receptors) is mixed with equal amounts of expression plasmids encoding human Gi2α (for S1P3, a mutated (C352F) rat Gi2α is used), cow β1, and cow γ2 proteins, and these DNAs are used to transfect monolayers of HEK293T cells (where ‘T’ indicates expression of the SV-40 virus large T antigen) using the calcium phosphate precipitate method (7). After about 60 hours, cells are harvested, membranes prepared, aliquoted, and stored at −70° C. until use (8).
The [γ-^35S]GTP binding assay is performed as described previously (8). Membranes containing 1-5 μg of protein are incubated in 0.1 ml of binding buffer (in mM: HEPES/50, NaCl/100, MgCl2/10, pH 7.5) containing 5 μg of saponin, 10 μM GDP, 0.1 nM [γ-^35S]GTP (1200 Ci/mmol), and indicated lipid(s) for 30 min at 30° C. and collected using a Brandel Cell Harvester (Gaithersburg, Md.). Samples are then analyzed for bound radionuclide.
as §2
Statistical Analysis. The EC50 and IC50 values for all dose response curves were determined by nonlinear regression analysis of all data using the Graphpad Prism© program. The error associated with the data collected is reported as the standard error of the mean (S.E.M).

[3] = molecular target: T1, human S1P1 receptor; experiment: Cell migration assay, T24 cells transfected stably with human S1P1 receptor; format: cell-based; set-up: expressed in transfected cells
Procedure: as §1
Cell migration assays are performed using modified Boyden chambers (tissue culture-treated, 24-mm diameter, 10-μm thickness, 8-μm pores, Transwell®; Costar Corp., Cambridge, Mass.) containing polycarbonate membranes that are coated on the underside with 0.1% gelatin. The underside of the polycarbonate membranes is rinsed once with migration media (DMEM/F12 without Phenol Red and 0.1% fatty acid free BSA) and then immersed in the lower chamber containing two milliliters of migration media. T24 cells transfected stably with human S1P1 receptor DNA were grown in DMEM/F12 media containing charcoal/dextran stripped FBS and 10 μg/ml puromycin to 100% confluence in 150×2.5 mm tissue culture plates and serum starved at least 12 hours. Serum-starved cells were removed from culture dishes with 10× Trypsin-EDTA (Hanks' balanced salt solution containing 5 mM EDTA and 25 mM HEPES, pH 7.2, and 0.1% trypsin; Invitrogen, San Diego, Calif.), suspended in migration buffer and collected by centrifugation at 130×g for 5 minutes. The supernatant fluid was removed by aspiration and cell pellet resuspended in migration media (10^6 cells/ml). […] The non-migrating cells in the upper chamber were removed by aspiration and the migratory cells attached to the bottom surface of the membrane were isolated by incubation in 10× Trypsin-EDTA for 1 min at room temperature and gently tapping the plate to dislodge cells from the membrane. The mass of migratory cells per membrane was evaluated by combining 100 μl of cell suspension with an equal volume of CyQuant dye solution (3.0 ml of 2× lysis buffer and 15 μl CyQuant dye), and the resulting fluorescence quantified using the FlexStation™ fluorimeter (Molecular Devices, Menlo Park, Calif.). Each determination represents the average of two individual migration chambers. […] The monolayer was washed three times with phosphate buffered saline and processed immediately for the cell migration assay, as described above.

[4] = molecular target: T2, S1P2 receptor (Homo sapiens, UniProt O95136); experiment: [32P]S1P binding assay; conditions: concentrations up to 10 μM (data not shown)
T2 construct: expressed in transfected cells; host or cells: HEK293T, transient transfection; membranes
Procedure: [^32P]-S1P was prepared by incubating sphingosine and [γ-^32P]ATP with cell lysate from HEK293T cells transiently transfected with human sphingosine kinase type 2 DNA. The 200 μl reaction contained 0.025 mM sphingosine, 1 mCi [γ-^32P]ATP (7000 Ci/mmol) and kinase buffer (in mM: Mg(C2H3O2)2 (in 50 mM Tris, pH 7.5)/10, NaF/10, and semicarbizide/2). The reaction was initiated by the addition of 20 μg of cell lysate and incubated at 37° C. for at least 30 minutes. […] The organic layer was isolated and the extraction procedure repeated two additional times with the remaining aqueous fraction. The combined organic fractions were dried under a stream of nitrogen gas and resuspended in aqueous 0.1% fatty acid free BSA.
Bound ligand was separated from free ligand by rapid filtration and analyzed in a liquid scintillation counter.

human S1P3 receptor, sequence (Q99500 whole entry): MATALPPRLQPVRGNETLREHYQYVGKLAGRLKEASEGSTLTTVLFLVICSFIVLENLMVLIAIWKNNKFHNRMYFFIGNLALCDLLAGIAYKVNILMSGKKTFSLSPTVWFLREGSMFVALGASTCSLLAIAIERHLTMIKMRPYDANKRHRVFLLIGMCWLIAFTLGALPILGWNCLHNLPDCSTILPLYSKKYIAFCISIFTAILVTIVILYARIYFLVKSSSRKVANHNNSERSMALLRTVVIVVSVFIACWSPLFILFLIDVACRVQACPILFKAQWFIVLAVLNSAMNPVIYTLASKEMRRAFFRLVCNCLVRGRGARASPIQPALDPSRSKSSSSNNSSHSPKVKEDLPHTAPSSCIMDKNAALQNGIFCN
T1 sequence (P21453 whole entry): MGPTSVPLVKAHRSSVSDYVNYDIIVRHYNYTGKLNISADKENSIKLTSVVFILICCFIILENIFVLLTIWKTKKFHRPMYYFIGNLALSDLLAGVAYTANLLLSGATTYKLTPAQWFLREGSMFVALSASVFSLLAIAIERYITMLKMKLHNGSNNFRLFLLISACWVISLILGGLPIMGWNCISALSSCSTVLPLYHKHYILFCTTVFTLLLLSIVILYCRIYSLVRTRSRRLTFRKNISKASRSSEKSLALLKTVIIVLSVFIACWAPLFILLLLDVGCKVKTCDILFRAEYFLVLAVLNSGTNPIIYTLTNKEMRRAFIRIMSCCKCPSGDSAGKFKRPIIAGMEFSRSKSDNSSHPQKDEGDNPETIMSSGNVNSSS
T2 sequence (O95136 whole entry): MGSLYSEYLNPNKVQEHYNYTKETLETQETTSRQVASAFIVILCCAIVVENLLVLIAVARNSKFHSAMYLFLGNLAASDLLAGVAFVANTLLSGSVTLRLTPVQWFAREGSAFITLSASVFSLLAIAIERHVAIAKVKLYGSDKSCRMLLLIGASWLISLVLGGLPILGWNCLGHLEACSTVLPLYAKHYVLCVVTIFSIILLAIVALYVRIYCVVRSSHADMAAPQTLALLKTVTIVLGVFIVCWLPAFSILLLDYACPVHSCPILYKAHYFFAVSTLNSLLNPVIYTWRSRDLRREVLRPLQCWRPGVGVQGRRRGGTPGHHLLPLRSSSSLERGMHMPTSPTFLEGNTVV

Reversibility of antagonism after washout, Ca2+ mobilization ([1]; 10000 nM VPC23019 pre-treatment followed by washout): recovered fully | Agonist activity at the S1P1 receptor [2]: lacked agonist activity | pKb S1P1 ([2]; Schild analysis (Lew and Angus) of S1P curves in [γ-35S]GTP binding, ± S.E.M.): 7.49±0.16 | Inverse agonism profile at S1P1 ([2]; VPC23019 concentrations greater than 100 nM): a profile suggesting inverse agonism | Kb ([2]; read-out: pKb S1P1 (converted)): 32.4 nM | Blockade of VPC22277 (10 nM)-induced migration ([3]; 50 nM antagonist): Blockade | Reversibility of antagonism after washout, cell migration ([3]; 10 μM VPC23019 pre-incubation 30 min, washed): recovered fully | Blockade of VPC22277 (10 nM)-induced migration ([3]; 10, 100 and 1000 nM antagonist): blockade | Migration of T24-S1P1 cells evoked by compound alone ([3]; VPC22277 10 nM, VPC23019 1 nM-1000 nM): no migration was evoked and not | Influence on binding of [32P]S1P to the S1P2 receptor [4]: did not influence the binding
Compound: CCCCCCCCc1cccc(NC(=O)[C@H](N)COP(=O)(O)O)c1 [VPC23019]
Competitive behaviour in calcium mobilization assay (nonlinear regression) ([1]; T24-S1P3 cells): did not behave as a competitive antagonist | Calcium mobilization by compound alone ([1]; T24-S1P3 cells versus wild-type T24 cells): not a result of stimulation of the S1P3 receptor | Antagonism of S1P at the S1P1 receptor ([2]; [γ-35S]GTP binding, S1P with increasing VPC23019, Lew and Angus regression): dose-dependent, parallel rightward shift; also recorded: competitive antagonist | Agonist efficacy class S1P1 ([2]; relative to S1P Emax): na (no agonist activity (<10% of S1P Emax))
